# Measurements published in ChEMBL document CHEMBL4184221, “Identification and optimization of soluble epoxide hydrolase inhibitors with dual potency towards fatty acid amide hydrolase” (Bioorg Med Chem Lett, 2018).
# Activity calls are given as the source filed them. The rule behind the calls is not given here.
# Assays:
# [1] = target: T1, Bifunctional epoxide hydrolase 2 (Homo sapiens, UniProt P34913); assay: Inhibition of human recombinant soluble epoxide hydrolase expressed in baculovirus-infected High Five cells S9 fraction using CMNPC substrate by fluorescence based assay; format: cell-based
# T1 sequence (P34913 whole entry): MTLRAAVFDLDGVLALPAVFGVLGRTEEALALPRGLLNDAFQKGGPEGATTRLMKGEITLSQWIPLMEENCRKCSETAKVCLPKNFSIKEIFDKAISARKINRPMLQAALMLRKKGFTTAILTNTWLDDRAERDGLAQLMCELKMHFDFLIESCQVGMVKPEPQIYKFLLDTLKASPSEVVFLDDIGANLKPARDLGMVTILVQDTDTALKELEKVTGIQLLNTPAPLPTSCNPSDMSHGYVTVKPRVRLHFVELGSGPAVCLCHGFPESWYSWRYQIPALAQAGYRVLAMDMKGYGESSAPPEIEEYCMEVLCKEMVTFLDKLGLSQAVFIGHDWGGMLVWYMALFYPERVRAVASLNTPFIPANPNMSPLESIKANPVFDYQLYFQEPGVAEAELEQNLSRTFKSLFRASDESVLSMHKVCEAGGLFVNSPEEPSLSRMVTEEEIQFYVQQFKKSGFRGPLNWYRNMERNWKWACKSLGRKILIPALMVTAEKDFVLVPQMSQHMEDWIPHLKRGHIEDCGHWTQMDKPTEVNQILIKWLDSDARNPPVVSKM
# [2] = target: T2, Bifunctional epoxide hydrolase 2 (Homo sapiens) (UniProt P34913)
# T2 sequence (whole entry): T1 sequence (P34913 whole entry)
# Felis catus = organism: Felis catus; assay: Inhibition of FAAH in cat brain microsomes using OMP substrate by fluorescence based assay; settings: concentration not given here
# Canis lupus familiaris = organism: Canis lupus familiaris; assay: Inhibition of FAAH in dog brain microsomes using OMP substrate by fluorescence based assay; settings: concentration not given here
# [3] = (§1) Inhibition of FAAH in horse brain microsomes using OMP substrate by fluorescence based assay; set-up: species or system Equus caballus
# Equus caballus = organism: Equus caballus; assay: as §1; settings: concentration not given here
Compound,IC50 [1] [nM],TDI [2],also measured
O=C(Nc1ccc(Cl)cc1)N[C@H]1CC[C@H](Oc2ccc(C(=O)O)cc2)CC1,7,–,–
O=C(Nc1ccc(OC(F)(F)F)cc1)N[C@H]1CC[C@H](Oc2ccc(C(=O)O)cc2)CC1,–,inactive,–
NC(=O)c1cccc(-c2cccc(OC(=O)NC3CCCCC3)c2)c1 [URB-597],1100,Active,inhibition (Felis catus): > 80%; inhibition (Canis lupus familiaris): > 80%; IC50 [3]: 7 nM; inhibition (Equus caballus): > 80%
O=C(Nc1ccc(Oc2ccc(C(=O)O)cc2)cc1)Nc1ccc(OC(F)(F)F)cc1,7,–,–
O=C(NC1CCCCC1)N[C@H]1CC[C@H](Oc2ccc(C(=O)O)cc2)CC1,6,–,–
